Measurements as given in patent US6645918B1, “N-([1,2,4]triazoloazinyl)thiophenesulfonamide compounds and their use as herbicides” (Dow AgroSciences LLC, priority 2000, dated 2003).

How the values were obtained:
[1] = system: chickweed (Stellaria media); assay: Postemergence herbicidal activity, chickweed; format: in vivo; conditions: 3.9 ppm, foliar spray, visual after 2 weeks; 0 no injury, 100 complete kill
Method in brief: (§1)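 Postemergence foliar spray to pots at 1st–2nd true leaf, grown 7–21 d at ~23–29 °C day. Spray carrier: acetone/water/IPA/DMSO/crop oil/Triton X-155; 1 ppm ≈ 1 g/ha. Read-out: visual injury 0 (none) to 100% (complete kill), 2 wk.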

[2] = system: cocklebur (Xanthium strumarium); assay: Postemergence herbicidal activity, cocklebur; format: in vivo; conditions: 3.9 ppm, foliar spray, visual after 2 weeks; 0 no injury, 100 complete kill
Method in brief: as §1

[3] = system: lambsquarters (Chenopodium album); assay: Postemergence herbicidal activity, lambsquarters; format: in vivo; conditions: 3.9 ppm, foliar spray, visual after 2 weeks; 0 no injury, 100 complete kill
Method in brief: as §1

[4] = system: morningglory (Ipomoea hederacea); assay: Postemergence herbicidal activity, morningglory; format: in vivo; conditions: 3.9 ppm, foliar spray, visual after 2 weeks; 0 no injury, 100 complete kill
Method in brief: as §1

[5] = system: pigweed (Amaranthus retroflexus); assay: Postemergence herbicidal activity, pigweed; format: in vivo; conditions: 3.9 ppm, foliar spray, visual after 2 weeks; 0 no injury, 100 complete kill
Method in brief: as §1

[6] = system: velvetleaf (Abutilion theophrasti); assay: Postemergence herbicidal activity, velvetleaf; format: in vivo; conditions: 3.9 ppm, foliar spray, visual after 2 weeks; 0 no injury, 100 complete kill
Method in brief: as §1

viola (Viola tricolor) = assay: Postemergence herbicidal activity, viola; format: in vivo; conditions: 3.9 ppm, foliar spray, visual after 2 weeks; 0 no injury, 100 complete kill
Method in brief: as §1

[7] = system: wild buckwheat (Polygonum convolvulus); assay: Postemergence herbicidal activity, wild buckwheat; format: in vivo; conditions: 3.9 ppm, foliar spray, visual after 2 weeks; 0 no injury, 100 complete kill
Method in brief: as §1

[8] = system: blackgrass (Alopecurus myosuroides); assay: Postemergence herbicidal activity, blackgrass; format: in vivo; conditions: 3.9 ppm, foliar spray, visual after 2 weeks; 0 no injury, 100 complete kill
Method in brief: as §1

[9] = system: giant foxtail (Setaria faberi); assay: Postemergence herbicidal activity, giant foxtail; format: in vivo; conditions: 3.9 ppm, foliar spray, visual after 2 weeks; 0 no injury, 100 complete kill
Method in brief: as §1

[10] = system: Rox orange sorghum (Sorghum bicolor); assay: Postemergence herbicidal activity, Rox orange sorghum; format: in vivo; conditions: 3.9 ppm, foliar spray, visual after 2 weeks; 0 no injury, 100 complete kill
Method in brief: as §1

wild oats (Avena fatua) [11] = assay: Postemergence herbicidal activity, wild oats; format: in vivo; conditions: 3.9 ppm, foliar spray, visual after 2 weeks; 0 no injury, 100 complete kill
Method in brief: as §1

[12] = system: cocklebur (Xanthium strumarium); assay: Preemergence herbicidal activity, cocklebur; format: in vivo; conditions: 17.5 g/Ha, soil spray, visual after 3 weeks; 0 no injury, 100 complete kill or no germination
Method in brief: (§2)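 Herbicide applied to soil before emergence at a maximum of 4.48 kg/ha, formulated from an acetone:DMSO (97:3) stock in water with Tween 155 surfactant. Damage was estimated visually on a 0-100 percent scale three weeks later, relative to untreated pots.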

[13] = system: lambsquarters (Chenopodium album); assay: Preemergence herbicidal activity, lambsquarters; format: in vivo; conditions: 17.5 g/Ha, soil spray, visual after 3 weeks; 0 no injury, 100 complete kill or no germination
Method in brief: as §2

[14] = system: morningglory (Ipomoea hederacea); assay: Preemergence herbicidal activity, morningglory; format: in vivo; conditions: 17.5 g/Ha, soil spray, visual after 3 weeks; 0 no injury, 100 complete kill or no germination
Method in brief: as §2

[15] = system: pigweed (Amaranthus retroflexus); assay: Preemergence herbicidal activity, pigweed; format: in vivo; conditions: 17.5 g/Ha, soil spray, visual after 3 weeks; 0 no injury, 100 complete kill or no germination
Method in brief: as §2

[16] = system: velvetleaf (Abutilion theophrasti); assay: Preemergence herbicidal activity, velvetleaf; format: in vivo; conditions: 17.5 g/Ha, soil spray, visual after 3 weeks; 0 no injury, 100 complete kill or no germination
Method in brief: as §2

[17] = system: wild poinsettia (Euphorbia heterophylla); assay: Preemergence herbicidal activity, wild poinsettia; format: in vivo; conditions: 17.5 g/Ha, soil spray, visual after 3 weeks; 0 no injury, 100 complete kill or no germination
Method in brief: as §2

[18] = system: blackgrass (Alopecurus myosuroides); assay: Preemergence herbicidal activity, blackgrass; format: in vivo; conditions: 17.5 g/Ha, soil spray, visual after 3 weeks; 0 no injury, 100 complete kill or no germination
Method in brief: as §2

[19] = system: barnyardgrass (Echinochloa crus-galli); assay: Preemergence herbicidal activity, barnyardgrass; format: in vivo; conditions: 17.5 g/Ha, soil spray, visual after 3 weeks; 0 no injury, 100 complete kill or no germination
Method in brief: as §2

[20] = system: crabgrass (Digitaria sanguinalis); assay: Preemergence herbicidal activity, crabgrass; format: in vivo; conditions: 17.5 g/Ha, soil spray, visual after 3 weeks; 0 no injury, 100 complete kill or no germination
Method in brief: as §2

[21] = system: giant foxtail (Setaria faberi); assay: Preemergence herbicidal activity, giant foxtail; format: in vivo; conditions: 17.5 g/Ha, soil spray, visual after 3 weeks; 0 no injury, 100 complete kill or no germination
Method in brief: as §2

[22] = system: Rox orange sorghum (Sorghum bicolor); assay: Preemergence herbicidal activity, Rox orange sorghum; format: in vivo; conditions: 17.5 g/Ha, soil spray, visual after 3 weeks; 0 no injury, 100 complete kill or no germination
Method in brief: as §2

wild oats (Avena fatua) [23] = assay: Preemergence herbicidal activity, wild oats; format: in vivo; conditions: 17.5 g/Ha, soil spray, visual after 3 weeks; 0 no injury, 100 complete kill or no germination
Method in brief: as §2

## COc1ccsc1S(=O)(=O)Nc1nc2c(OC)cnc(OC)n2n1 [Compound 1, 3-Methoxy-N-(5,8-dimethoxy[1,2,4]triazolo[1,5-c]pyrimidin-2-yl)thiophene-2-sulfonamide]
[1]
  STEME postemergence injury score 0-100: 75%
[2]
  XANST postemergence injury score 0-100: 50%
[3]
  CHEAL postemergence injury score 0-100: 75%
[4]
  IPOHE postemergence injury score 0-100: 85%
[5]
  AMARE postemergence injury score 0-100: 95%
[6]
  ABUTH postemergence injury score 0-100: 75%
Viola (Viola tricolor)
  VIOTR postemergence injury score 0-100: 70%
[7]
  POLCO postemergence injury score 0-100: 98%
[8]
  ALOMY postemergence injury score 0-100: 95%
[9]
  SETFA postemergence injury score 0-100: 100%
[10]
  SORBI postemergence injury score 0-100: 98%
Wild oats (Avena fatua) [11]
  AVEFA postemergence injury score 0-100: 99%
[12]
  XANST preemergence injury score 0-100: 70%
[13]
  CHEAL preemergence injury score 0-100: 98%
[14]
  IPOHE preemergence injury score 0-100: 85%
[15]
  AMARE preemergence injury score 0-100: 100%
[16]
  ABUTH preemergence injury score 0-100: 98%
[17]
  EPHHL preemergence injury score 0-100: 100%
[18]
  ALOMY preemergence injury score 0-100: 100%
[19]
  ECHCG preemergence injury score 0-100: 100%
[20]
  DIGSA preemergence injury score 0-100: 100%
[21]
  SETFA preemergence injury score 0-100: 100%
[22]
  SORBI preemergence injury score 0-100: 100%
Wild oats (Avena fatua) [23]
  AVEFA preemergence injury score 0-100: 100%
other
  melting point: 227 to 228 °C
